Assay results: patent US8609695B2, “Methods of treating and/or suppressing insulin resistance” (Endorecherche, Inc., priority 1999, dated 2013)

System: lean and obese Zucker female rats
Assay: Energy balance and lipid-lipoprotein metabolism in Zucker female rats (Example 8B)
Assay type: in vivo, Rattus norvegicus
Settings: for Lipoprotein lipase activity White retroperitoneal / Lipoprotein lipase activity soleus / Plasma glucose / Plasma insulin / Plasma total cholesterol / Plasma triglycerides / Weight: 2.5 mg/kg orally once daily, 14 days
Method: The objective of this study was to determine the cffect of EM-652.HCl on energy balance and lipid-lipoprotein metabolism in lean and obese Zucker female rats. For this purpose, EM-652.HCl (2.5 mg/kg) was administered orally (gavage) once daily for 14 days to intact lean and obese Zucker female rats.
d) Diet: • During the acclimation period, rats received a commercial rodent diet (Purina, #5075) and tap water ad libitum. During study period, rats received the following diet (diet #3) composed of (g/100 g): Starch, 31.2; Dextrose, 31.2; Casein, 20.0; Corn oil, 6.4; dl-Methionine, 0.3; Vitamin mix, 1.0; AIN-76 mineral mix, 4.9; Fiber, 5.0. Rats were fasted (with access to water only) around 07 h00 the morning of their necropsy day. Randomixation:
Sixteen lean and sixteen obese intact female rats were assigned to 4 groups of 8 rats for conduct of the study outlined below.
Administration of the tested compound or vehicle started on Day 1 of the study. The tested compound EM-652.HCl was given as suspension in 0.4% methylcellulose by oral gavage (0.5 ml/gavage/rat) once daily for 14 days. Rats from control groups received the vehicle alone (0.5 ml/gavage/rat) for the same time period.
During the acclimation period, animals were weighed two days prior to the start of dosing for randomization. Then, rats were weighed on day 1 of the study and every 2 days during the study period as well as on the day of necropsy. Body weights were recorded with a precision of 1 g.
Following an approximative 6-hour fasting period, animals were necropsied (approximately 30 hours after the last dosing). They were anesthesized with ketamine-xylazine and blood drawn by cardiac punction.
Blood lipids (Total cholesterol (CHOL) and Triglycerides (TG)) and glucose were measured on frozen plasma samples using the Boehringer Mannheim Diagnostic Hitachi 911 Analyzer (Boehringer Mannheim Diagnostic Laboratory Systems). Circulating hormones and substrates (Leptin, Insulin, corticosterone) were measured on frozen plasma samples with the following kits: • Leptin: Linco RIA kit • Insulin: Linco RIA kit Organs and Tissues Collected
The retroperitoneal adipose tissue and the soleus (muscle) were collected and frozen in liquid nitrogen for further determination of lipoprotein lipase (LPL) activity.

With `CC1=C(c2ccc(O)cc2)[C@H](c2ccc(OCCN3CCCCC3)cc2)Oc2cc(O)ccc21.Cl` [EM-652.HCl, (S)-(+)-7-hydroxy-3-(4′-hydroxyphenyl)-4-methyl-2-(4″-(2′″-piperidino-ethoxy)phenyl)-2H-1-benxopyran hydrochloride] the “Lipoprotein lipase activity White retroperitoneal” value (lean Zucker female rats) was 1349 ± 246 μU/g protein, the “Lipoprotein lipase activity soleus” value (lean Zucker female rats) was 60.8 ± 11.1 μU/g protein and the Plasma glucose (lean Zucker female rats) was 9.60 ± 0.41 mmol/L. For the same compound, the Plasma insulin (lean Zucker female rats) was 0.063 ± 0.012 nmol/L, the Plasma total cholesterol (lean Zucker female rats) was 1.57 ± 0.14 mmol/L and the Plasma triglycerides (lean Zucker female rats) was 0.83 ± 0.07 mmol/L. For the same compound, the Weight (lean Zucker female rats) was 154 ± 5 g, the “reduction of plasma insulin” value (lean female Zucker rats, 2.5 mg/kg/day) was 48% and the “Lipoprotein lipase activity White retroperitoneal” value (obese Zucker female rats) was 3819 ± 485 μU/g protein. The “Lipoprotein lipase activity soleus” value (obese Zucker female rats) was 36.6 ± 7.1 μU/g protein, the Plasma glucose (obese Zucker female rats) was 11.70 ± 0.47 mmol/L and the Plasma insulin (obese Zucker female rats) was 0.515 ± 0.091 nmol/L. The Plasma total cholesterol (obese Zucker female rats) was 3.27 ± 0.97 mmol/L, the Plasma triglycerides (obese Zucker female rats) was 22.20 ± 4.44 mmol/L and the Weight (obese Zucker female rats) was 291 ± 9 g. For the same compound, the “effect on plasma insulin” value (obese female Zucker rats, 2.5 mg/kg/day) was “no significant effect”.
